Source: publication PMC2570486, “The Recently Identified P2Y-Like Receptor GPR17 Is a Sensor of Brain Damage and a New Target for Brain Repair” (PLoS ONE, 2008)
One block for each molecule: values may come before it.

Columns and labels:
[1] = target: T1, mGPR17 (Mus musculus, UniProt Q6NS65); assay: [35S]GTPγS binding in membranes of 1321N1 cells transfected with pcDNA3.1-Gpr17m; assay type: biochemical; details: for EC50: membranes of 1321N1 cells expressing mouse GPR17, mean±SEM of three experiments, read-out: EC50, stimulation of [35S]GTPγS binding
T1 construct: contains a 1020 base pairs open reading frame (ORF) that encodes for a putative 339 amino acid protein; expressed in transfected cells; host or cells: 1321N1 human astrocytoma cells (transient, calcium phosphate); membranes
T1 sequence (Q6NS65 whole entry): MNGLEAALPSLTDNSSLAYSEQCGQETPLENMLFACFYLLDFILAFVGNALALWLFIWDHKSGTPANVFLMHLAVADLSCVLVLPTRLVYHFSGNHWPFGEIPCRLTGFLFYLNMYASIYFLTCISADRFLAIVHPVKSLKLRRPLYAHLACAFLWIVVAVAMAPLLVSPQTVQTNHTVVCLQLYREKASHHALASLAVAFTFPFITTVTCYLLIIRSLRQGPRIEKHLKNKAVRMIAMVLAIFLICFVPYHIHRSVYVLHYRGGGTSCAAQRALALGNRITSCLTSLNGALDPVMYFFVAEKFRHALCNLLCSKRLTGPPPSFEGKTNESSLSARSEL
Procedure: The pharmacological profile of mGPR17 was then assessed. Since stimulation of GPCRs results in increased binding of GTP to G proteins (which can, in turn, be quantified by measuring [^35S]GTPγS binding to purified membranes; see [13]), GPR17 activation in the heterologous system was determined by testing the increase of [^35S]GTPγS binding by exogenously-added agonists in membranes from transfected cells, [14], [15]. […] The ability of some known purinergic and cysLT antagonists to counteract agonist-induced GTPγS binding stimulation in cells expressing mGPR17 was also assessed.
Figure 1 Effect of purinergic and leukotriene ligands on mGPR17 with [^35S]GTPγS binding. Membrane aliquots (10 µg), obtained from 1321N1 cells transfected with pcDNA3.1-Gpr17m (A,B), were incubated with the indicated concentrations of purinergic (A) or leukotriene (B) agonists. […] (D) Effect of P2Y or CysLT receptor antagonist on agonist-stimulated [^35S]GTPγS binding. […] All data are expressed as percentage of basal [^35S]GTPγS binding (set to 100%) and represent the mean±SEM of three different experiments each performed in duplicate.
Human astrocytoma cells 1321N1 cells were cultured as described. For [^35S]GTPγS, 10^6 1321N1 cells were seeded on 75 cm^2 flasks and transfected by the calcium phosphate precipitation method.
Control and transfected 1321N1 cells were homogenized in 5 mM TRIS-HCl, 2 mM EDTA, pH 7.4 and centrifuged at 48000 g for 15 min at 4°C. The resulting plasma membranes were suspended in binding buffer and used in [^35S]GTPγS binding assay as previously described.
For [^35S]GTPγS binding data analysis and graphic presentation, a non-linear multipurpose curve-fitting program Graph-Pad Prism was used and the EC50 values were derived. Data are reported as mean±SEM of three different experiments (performed in duplicate).

[2] = system: GPR17+ oligodendrocyte precursors in primary cortical cultures; assay: Oligodendrocyte precursor maturation in primary mixed neuronal/glial cortical cultures (immunostaining, cell counts); assay type: cell-based, rat; details: 72 h
Description: Figure 4 Presence and activation of GPR17 in oligodendrocyte precursor cells of primary cortical cultures maintained in vitro. […] Micrographs (A–H) show their phenotype characterization. […] Colocalization of GPR17 with these markers is shown in yellow-orange cells. […] In blue, Hoechst 33258 stained nuclei. Single cell RT-PCR was used to confirm expression of GPR17 in oligodendroglial-like cells (I). For this analysis, cells were picked up from living cultures using cell morphology as a guide at the light microscope. Left micrograph: an example of a brightfield showing cells (arrows) with oligodendrocyte morphology. These cells can be distinguished from neurons based on their size (approximately 1/3 the size of neurons), phase-dark cell bodies and presence of fine ramifications. The oligodendrocyte nature of cells with this morphology was confirmed by co-immunostaining for O4 and GPR17 at a subsequent time after culture fixing (arrows in right micrograph). By following this method, one living cell or a small number of cells (up to 10) were sucked from living cultures (see MATERIALS AND METHODS) and processed for RT-PCR analysis. […] Rat cortex was utilized as a positive control (see last lane). Scale bars: 15 µm. […] (K) Quantification of the percentage of GPR17^+ cells that also co-express the indicated oligodendrocyte markers. Total number (n) of GPR17^+ cells counted from two different coverslips for each preparation: for NG2, n = 3502; for O4, n = 2685; for CNPase, n = 1738; for MBP, n = 3615. Data were obtained from five different primary culture preparations.
Primary mixed neuronal/glial cultures from cerebral cortex were obtained from E18 Sprague-Dawley rats according to standard procedures [34]. Pregnant animals were euthanized by cervical dislocation under CO2 anesthesia, and the fetuses removed and put into ice-cold Hanks balanced salt solution. […]

[3] = target: T2, GPR17 (Mus musculus, UniProt Q6NS65); assay: Permanent MCAo focal cerebral ischemia, brain infarct size by MRI; assay type: in vivo
T2 construct: from tissue; host or cells: brain of living male CD1 mice after permanent MCAo
T2 sequence (Q6NS65 whole entry): as above
Procedure: To address this issue, 6 mice received an anti-sense oligonucleotide (616) specifically designed to knock down this receptor in vivo. Animals were injected intracerebroventricularly 20 min and 24 h after MCAo. […] Another group of 6 animals received in parallel a “scrambled” oligonucleotide randomly generated on the basis of the nucleotide sequence of 616. This group of animals was utilized as a control group in this set of experiments. […] The evolution of ischemic damage was followed longitudinally in living animals by Magnetic Resonance Imaging (MRI) at 2, 24 and 48 h after MCAo.
Images were taken from the same animals at 2, 24 and 48 h after MCAo. […] (B) Quantitative analysis of infarct size volume at 24 and 48 hours after MCAo in mice receiving Scr, 616 or Can (mean of 6 animals/group). Data are expressed as percentage variation of infarct volume at 24 and 48 h after MCAo compared to 2 h considered as 100% (see also MATERIALS AND METHODS).
Male CD1 mice (Charles River, Calco, Italy) weighing 20–25 g, after intraperitoneally anesthetized with ketamine (0.1 mg/kg) and xylazine (0.02 mg/kg), underwent permanent MCAo, as previously described [35]. […]

[4] = UDP-glucose 100 µM, LTD4 100 nM

SMILES: CSCCNc1nc(SCCC(F)(F)F)nc2c1ncn2[C@@H]1O[C@H](COP(=O)(O)OP(=O)(O)C(Cl)(Cl)P(=O)(O)O)[C@@H](O)[C@H]1O [Cangrelor]
IC50 ([1]; membranes of 1321N1 cells expressing mGPR17, 10 min pre-incubation, 500 nM UDP, read-out: IC50, inhibition of GTPγS binding stimulated by UDP): 1.2 ± 0.3 nM | effect on UDP-glucose-induced increase of GPR17+ and MBP+ cells ([2]; 10 µM antagonist with 100 µM UDP-glucose): partially counteracted | progression of ischemic damage (brain infarct volume) at 24 and 48 h vs 2 h ([3]; cangrelor 1.125 µg/animal i.c.v. 20 min after MCAo, oligonucleotides 10 µg/animal i.c.v. 20 min and 24 h after MCAo): totally abolished | ischemic infarct volume at 2 h after MCAo ([3]; i.c.v. treatment 20 min after MCAo, 6 animals/group, no significant differences between groups): 16.4±4.23 mm^3

SMILES: CCCCC/C=C\C\C=C/C=C/C=C/[C@@H](SC[C@H](NC(=O)CC[C@H](N)C(=O)O)C(=O)NCC(=O)O)[C@@H](O)CCCC(=O)O [LTC4]
EC50 [1]: 0.74 ± 0.2 nM

SMILES: O=c1ccn([C@@H]2O[C@H](COP(=O)(O)OP(=O)(O)O)[C@@H](O)[C@H]2O)c(=O)[nH]1 [UDP]
EC50 [1]: 55 ± 6.2 nM

The remaining molecules from weak to strong by EC50 [1], led by results:

EC50 [1]: 0.63 ± 0.1 nM
SMILES: CCCCC/C=C\C\C=C/C=C/C=C/[C@@H](SC[C@H](N)C(=O)NCC(=O)O)[C@@H](O)CCCC(=O)O [LTD4]
number of GPR17+ precursor cells [2, 4]: significantly increased | number of mature MBP+ oligodendroglial cells [2, 4]: significantly increased

EC50 [1]: 0.31 ± 0.09 nM
SMILES: CCCCC/C=C\C\C=C/C=C/C=C/[C@@H](SC[C@H](N)C(=O)O)[C@@H](O)CCCC(=O)O [LTE4]
